Tested on: patients after acute myocardial infarction
Test: TCM symptom score, total and single (chest pain, chest tightness, short breath, fatigue, palpitation, spontaneous perspiration, pale complexion), same clinical trial
Assay type: in vivo, human
Description: 3508 patients who were in accordance with the diagnostic standards of AMI for 28 days to 2 years and differentiated as Qi deficiency and blood stagnation syndrome by TCM were studied. 0.5 g Chinese medicine composition prepared by the method of EXAMPLE 1 (Coded as QSYQ) was administrated half an hour after meal, 3 times per day.
They included the overall survival time, angina pectoris score, TCM symptom score and life quality score, where angina pectoris score, TCM symptom score and life quality score were evaluated at randomization, in 1st, 3rd, 6th, 9th, 12th month after treatment and 18th month after follow-up.
The analysis method referred to the angina pectoris score.

[1] = 9 months after treatment-baseline, FAS
[2] = 9 months after treatment-baseline, PP
[3] = 12 months after treatment-baseline, FAS

SMILES: CC(=O)Oc1ccccc1C(=O)O [Control group, aspirine]
- chest pain score 0, percent of patients (6 months after treatment, PP): (42.93%)
- chest pain score 3, number of patients (6 months after treatment, PP): 539
- chest pain score 3, percent of patients (6 months after treatment, PP): (37.75%)
- chest pain score 6, number of patients (6 months after treatment, PP): 272
- chest pain score 6, percent of patients (6 months after treatment, PP): (19.05%)
- chest pain score 9, number of patients (6 months after treatment, PP): 4
- chest pain score 9, percent of patients (6 months after treatment, PP): (0.28%)
- chest tightness score 0, number of patients (6 months after treatment, PP): 613
- chest tightness score 0, percent of patients (6 months after treatment, PP): (42.93%)
- chest tightness score 3, number of patients (6 months after treatment, PP): 539
- chest tightness score 3, percent of patients (6 months after treatment, PP): (37.75%)
- chest tightness score 6, number of patients (6 months after treatment, PP): 272
- chest tightness score 6, percent of patients (6 months after treatment, PP): (19.05%)
- chest tightness score 9, number of patients (6 months after treatment, PP): 4
- chest tightness score 9, percent of patients (6 months after treatment, PP): (0.28%)
- change of chest pain score 0, number of patients [1]: 1022
- change of chest pain score 0, percent of patients [1]: (59.80%)
- change of chest pain score 3, number of patients [1]: 463
- change of chest pain score 3, percent of patients [1]: (27.09%)
- change of chest pain score 6, number of patients [1]: 124
- change of chest pain score 6, percent of patients [1]: (7.26%)
- change of chest pain score 9, number of patients [1]: 6
- change of chest pain score 9, percent of patients [1]: (0.35%)
- change of chest pain score −3, number of patients [1]: 81
- change of chest pain score −3, percent of patients [1]: (4.74%)
- change of chest pain score −6, number of patients [1]: 13
- change of chest pain score −6, percent of patients [1]: (0.76%)
- change of chest pain score −9, number of patients [1]: 0
- change of chest pain score −9, percent of patients [1]: (0.00%)
- change of chest tightness score 0, number of patients [1]: 1007
- change of chest tightness score 0, percent of patients [1]: (58.92%)
- change of chest tightness score 3, number of patients [1]: 534
- change of chest tightness score 3, percent of patients [1]: (31.25%)
- change of chest tightness score 6, number of patients [1]: 68
- change of chest tightness score 6, percent of patients [1]: (3.98%)
- change of chest tightness score 9, number of patients [1]: 4
- change of chest tightness score 9, percent of patients [1]: (0.23%)
- change of chest tightness score −3, number of patients [1]: 93
- change of chest tightness score −3, percent of patients [1]: (5.44%)
- change of chest tightness score −6, number of patients [1]: 3
- change of chest tightness score −6, percent of patients [1]: (0.18%)
- change of chest tightness score −9, number of patients [1]: 0
- change of chest tightness score −9, percent of patients [1]: (0.00%)
- change of chest pain score 0, number of patients [2]: 826
- change of chest pain score 0, percent of patients [2]: (58.58%)
- change of chest pain score 3, number of patients [2]: 409
- change of chest pain score 3, percent of patients [2]: (29.01%)
- change of chest pain score 6, number of patients [2]: 106
- change of chest pain score 6, percent of patients [2]: (7.52%)
- change of chest pain score 9, number of patients [2]: 4
- change of chest pain score 9, percent of patients [2]: (0.28%)
- change of chest pain score −3, number of patients [2]: 58
- change of chest pain score −3, percent of patients [2]: (4.11%)
- change of chest pain score −6, number of patients [2]: 7
- change of chest pain score −6, percent of patients [2]: (0.50%)
- change of chest pain score −9, number of patients [2]: 0
- change of chest pain score −9, percent of patients [2]: (0.00%)
- change of chest tightness score 0, number of patients [2]: 801
- change of chest tightness score 0, percent of patients [2]: (56.81%)
- change of chest tightness score 3, number of patients [2]: 476
- change of chest tightness score 3, percent of patients [2]: (33.76%)
- change of chest tightness score 6, number of patients [2]: 62
- change of chest tightness score 6, percent of patients [2]: (4.40%)
- change of chest tightness score 9, number of patients [2]: 3
- change of chest tightness score 9, percent of patients [2]: (0.21%)
- change of chest tightness score −3, number of patients [2]: 65
- change of chest tightness score −3, percent of patients [2]: (4.61%)
- change of chest tightness score −6, number of patients [2]: 3
- change of chest tightness score −6, percent of patients [2]: (0.21%)
- change of chest tightness score −9, number of patients [2]: 0
- change of chest tightness score −9, percent of patients [2]: (0.00%)
- chest pain score 0, number of patients (9 months after treatment, FAS): 791
- chest pain score 0, percent of patients (9 months after treatment, FAS): (46.04%)
- chest pain score 3, number of patients (9 months after treatment, FAS): 618
- chest pain score 3, percent of patients (9 months after treatment, FAS): (35.97%)
- chest pain score 6, number of patients (9 months after treatment, FAS): 305
- chest pain score 6, percent of patients (9 months after treatment, FAS): (17.75%)
- chest pain score 9, number of patients (9 months after treatment, FAS): 4
- chest pain score 9, percent of patients (9 months after treatment, FAS): (0.23%)
- chest tightness score 0, number of patients (9 months after treatment, FAS): 791
- chest tightness score 0, percent of patients (9 months after treatment, FAS): (46.04%)
- chest tightness score 3, number of patients (9 months after treatment, FAS): 618
- chest tightness score 3, percent of patients (9 months after treatment, FAS): (35.97%)
- chest tightness score 6, number of patients (9 months after treatment, FAS): 305
- chest tightness score 6, percent of patients (9 months after treatment, FAS): (17.75%)
- chest tightness score 9, number of patients (9 months after treatment, FAS): 4
- chest tightness score 9, percent of patients (9 months after treatment, FAS): (0.23%)
- chest pain score 0, number of patients (9 months after treatment, PP): 661
- chest pain score 0, percent of patients (9 months after treatment, PP): (46.71%)
- chest pain score 3, number of patients (9 months after treatment, PP): 519
- chest pain score 3, percent of patients (9 months after treatment, PP): (36.68%)
- chest pain score 6, number of patients (9 months after treatment, PP): 233
- chest pain score 6, percent of patients (9 months after treatment, PP): (16.47%)
- chest pain score 9, number of patients (9 months after treatment, PP): 2
- chest pain score 9, percent of patients (9 months after treatment, PP): (0.14%)
- chest tightness score 0, number of patients (9 months after treatment, PP): 661
- chest tightness score 0, percent of patients (9 months after treatment, PP): (46.71%)
- chest tightness score 3, number of patients (9 months after treatment, PP): 519
- chest tightness score 3, percent of patients (9 months after treatment, PP): (36.68%)
- chest tightness score 6, number of patients (9 months after treatment, PP): 233
- chest tightness score 6, percent of patients (9 months after treatment, PP): (16.47%)
- chest tightness score 9, number of patients (9 months after treatment, PP): 2
- chest tightness score 9, percent of patients (9 months after treatment, PP): (0.14%)
- change of chest pain score 0, number of patients [3]: 962
- change of chest pain score 0, percent of patients [3]: (56.29%)
- change of chest pain score 3, number of patients [3]: 511
- change of chest pain score 3, percent of patients [3]: (29.90%)
- change of chest pain score 6, number of patients [3]: 150
- change of chest pain score 6, percent of patients [3]: (8.78%)
- change of chest pain score 9, number of patients [3]: 7
- change of chest pain score 9, percent of patients [3]: (0.41%)
- change of chest pain score −3, number of patients [3]: 70
- change of chest pain score −3, percent of patients [3]: (4.10%)
- change of chest pain score −6, number of patients [3]: 9
- change of chest pain score −6, percent of patients [3]: (0.53%)
- change of chest pain score −9, number of patients [3]: 0
- change of chest pain score −9, percent of patients [3]: (0.00%)
- change of chest tightness score 0, number of patients [3]: 933
- change of chest tightness score 0, percent of patients [3]: (54.59%)
- change of chest tightness score 3, number of patients [3]: 598
- change of chest tightness score 3, percent of patients [3]: (34.99%)
- change of chest tightness score 6, number of patients [3]: 87
- change of chest tightness score 6, percent of patients [3]: (5.09%)

— US9211310B2, “Use of a Chinese medicine composition in preparing medicaments for treating secondary prevention of myocardial infarction” (TASLY PHARMACEUTICAL GROUP CO., LTD, priority 2010, dated 2015)
